Results on 4 compounds are retold here after patent publication US20220046925A1, “METHOD OF CONTROLLING PESTS BY SEED TREATMENT APPLICATION OF A MESOIONIC COMPOUND OR MIXTURE THEREOF” (BASF SE, priority 2018, published 2022).

Read-outs that look alike come from different tables or passages of the source. Marks after values point to notes of the source that are not given here.

Type in all cases: in vivo
One test relates to Phyllotreta striolata. Briefly: Canola seed treatment against striped flea beetle. Conditions: rate 400 (unit not given), 300 g ai/L formulation, cotyledon stage. The procedure: Canola seed treatment: Formulation was diluted in water to make appropriate concentration according to needs. Canola seeds with pre-coating inert ingredients were treated with diluted solution by vortex methods. Treated seeds were dried in ventilating chemical hood. After dry, three seeds were planted per pot (2×2 inch) at a depth of 1 cm, which were filled with Patio sand and watered prior to treatment and planting. The pots were arranged in a completely randomized design, kept in the greenhouse, and automatically top-watered and fertilized daily (NPK 16-4-20-3(Ca)-1(Mg)). At the cotyledon stage [˜7 days after treatment (DAT)], plants were thinned to 1 plant per pot. One set of plants was infested at the cotyledon stage and another set at the first true-leaf stage. Both cotyledons of a single plant were excised, and true leaves were sampled using a ⅝″ (1.59-cm) diameter leaf disc. Leaf samples were placed on a piece of 47-mm filter paper moistened with 0.225 mL distilled water in a 50-mm Petri dish. Five flea beetles were then infested into the petri dish. The dishes were held in an incubator at 27° C., 60% RH, and a 16L:8D light cycle. Five days after infestation (DAI), the numbers of live, moribund, and dead flea beetles were recorded, as well as % feeding damage (via visual estimate). […] Percent mortality was calculated for each treatment, with moribund insects classified as alive.

In the next test the test system is Rhopalosiphum padi. As to the kind of experiment: Barley seed treatment against bird cherry oat aphid. Particulars: 100 g ai/100 kg seed, first true leaf stage. How it is done: Barley seed treatment: Technical material was dissolved in DMSO. Twenty barely seeds were treated with a vortex method and planted in a pot (2×2 inch) filled with Rediearth soil. One seed was planted per pot and the pots were arranged in a completely randomized design, held in the greenhouse, and top-watered and fertilized daily. Four seedlings were taken from each cotyledon & true leaf treatment samples. DMSO solvent blank were used as positive and negative treatments, respectively. The true leaf stage was infested 14 days after planting (DAP). Ten bird cherry-oat aphids of mixed stages were transferred individually to each plant with a paint brush. Six replicates were set up for each treatment. After infestation, plants were kept on a light cart at room temperature and bottom watered until evaluated. The number of live aphids at 4 days after infestation (4DAI) was recorded, and means were calculated for each treatment. Percent control was calculated as the percent reduction in live aphids relative to the solvent blank.

In another test the test system is Myzus persicae. Briefly: Sugarbeet seed treatment against green peach aphid. How it is done: Sugarbeet seed treatment: Seeds were treated in according to desired rates. Seeds were planted (one per pot) at a depth of 1.5 cm in 3×3 in (58.0644 cm2) pots that were filled with RediEarth soil and moistened prior to planting. Pots were held in a completely randomized design in the greenhouse and automatically top watered and fertilized [NPK 16-4-20-3(Ca)-1(Mg)] daily (4 min, 4× a day) until infestation. A set of plants was infested 7, 14, 21 and 28 days after treatment (DAT). Thirty aphids were transferred individually to each plant with a paint brush. After infestation, plants were kept on a light cart at room temperature with continuous light and bottom watered until evaluation. Six days after infestation (DAI), the number of live aphids was recorded, and means were calculated for each treatment. Percent control was calculated as the percent reduction in live aphids relative to the solvent blank.

The test system of a further test is Elasmopalpus sp. Briefly: Soybean seed treatment against lesser corn stalkborer (cage). How it is done:
Soybean seed treatment: Soybean seeds were treated with Compound I-R-1. The treated seeds were sown inside an enclosed cage, in two lines at 29 seeds/cage. Thirty-five 3rd instar larvae of Elasmopalpus sp were introduced into each cage at six days after sowing. The number of dead and live plants were counted periodically.

Another test concerns Dichelops melacanthus. Briefly: Corn seed treatment against green belly stink bug (cage). Particulars: for mortality at 30 g/ha: Dichelops melacanthus. How it is done: Corn seed treatment: Corn seeds were treated with Compound I-R-1. The treated seeds were sown inside an enclosed cage, at 16 seeds/cage. Twenty-four stinkbugs, were introduced into each cage. The number of dead and live stinkbugs were counted periodically.

Test [1] has as its system Frankliniella fusca. Briefly: Cotton seed treatment against tobacco thrips (field). The procedure:
Cotton seed treatment: Field studies were carried out against tobacco thrips using cotton seeds treated with 0.375 mg ai/seed of Compound I-R-1. Treated Seeds were sown in 30 sq m plots. There were 4 replications for each treatment. Feeding damage was assessed at 5 and 7 days after planting (DAP).

Test [2] concerns Frankliniella fusca. Briefly: Peanut seed treatment against tobacco thrips (field). How it is done:
Peanut seed treatment: Field trials were laid out. Treated peanut seeds were sown in 8 sq m plots using 4 replications. Feeding damage was assessed at 28 and 35 days after treatment.

The test system of test [3] is Leptinotarsa decimlineata. Briefly: Potato seed piece treatment against Colorado potato beetle. The procedure: 8. Potato—Colorado Potato Beetle (Leptinotarsa decimlineata) Potato seed piece treatment: Seed potatoes were treated by spraying. After application, potatoes were allowed to dry prior to planting. The plots were laid out in 6-meter rows with 4 replications. Feeding damage assessments were taken at 42 and 50 days after planting.

The subject of test [4] is Rhopalosiphum padi (RHOPPA). Briefly: Barley seed treatment with mixtures against Rhopalosiphum padi (Colby synergy). Conditions: cotyledon stage, 4 days after infestation. An excerpt:
(§1) When the observed combined control effect is greater than the expected combined control effect (E), then the combined effect is synergistic.
(§2) Sub-lethal rates were predetermined by rate rundown. Formulations were combined and diluted in water and applied to barley seeds which were allowed to dry. Seeds were then planted and grown in a greenhouse. At the cotyledon stage, bird cherry-oat aphids (Rhopalosiphum padi) of mixed stages were infested onto each plant and held under laboratory conditions. Replication was 6×. Four days after infestation, the number of live aphids on each plant was recorded, and means were calculated for each treatment. Percent control was calculated as the percent reduction in live aphids relative to the solvent blank (Sun-Shepard method).

Test [5] has as its system Frankliniella occidentalis (FRANOC). As to the kind of experiment: Cotton seed treatment with mixtures against Frankliniella occidentalis (Colby synergy). Particulars: 7DAI.
Excerpt: as §1
as §2, with “cotton” for “barley”, “western flower thrips (Frankliniella occidentalis) adults” for “bird cherry-oat aphids (Rhopalosiphum padi) of mixed stages”, “5×. Seven and 14” for “6×. Four”, “percent damage” for “the number of live aphids on each plant”, “visually assessed,” for “recorded,”

The term mortality denotes the share of the test organisms that died. Turning to `C[n+]1c([O-])c(-c2ccccc2)c(=O)n2c1SC[C@@H]2c1cnc(Cl)s1` (single isomer, unassigned) [Compound I-R-1], the “Mean % feeding damage (5DAI, 13DAP)” value in the test with Phyllotreta striolata (5DAI, 13DAP) was 19^b %. For the same compound, the “Mean % Feeding Damage Reduction Relative to SB” value in the test on Phyllotreta striolata (relative to solvent blank) amounted to 58%. Further, the “Mean % Population Reduction (18 DAP, 4DAI)” value in the test with Rhopalosiphum padi is at least 90%. Moreover, the “Mean % Population Reduction Relative to SB @ 6DAI, 7 DAP” value in the test on Myzus persicae (sugar beet seed treatment, 80 g ai/1 kg seed, infested 7 DAP, 6DAI) worked out at 100%. Moreover, the “Mean % Population Reduction Relative to SB @ 6DAI, 14 DAP” value in the test on Myzus persicae (sugar beet seed treatment, 80 g ai/1 kg seed, infested 14 DAP, 6DAI) is on record as at least 90%. In addition, in the test on Myzus persicae (sugar beet seed treatment, 80 g ai/1 kg seed, infested 21 DAP, 6DAI), the “Mean % Population Reduction Relative to SB @ 6DAI, 21 DAP” value was at least 90%. The “Mean % Population Reduction Relative to SB @ 6DAI, 28 DAP” value in the test on Myzus persicae (sugar beet seed treatment, 80 g ai/1 kg seed, infested 28 DAP, 6DAI) is at least 90%. Further, the “activity against green peach aphid by sugarbeet seed treatment (in words)” value in the test on Myzus persicae (sugarbeet seed treatment) was “excellent activity”. For the same compound, the “activity as far as 4 weeks after plant (in words)” value in the test on Myzus persicae (sugarbeet seed treatment, 4 weeks after plant) is “excellent activity”. For the same compound, the “efficacy against Elasmopalpus sp. in terms of plant protection (in words)” value with Elasmopalpus sp is “good efficacy”. The “Number of dead plants/plot, A03” value in the test with Elasmopalpus sp (50 g ai/ha, assessment A03) worked out at 1.50 a. Moreover, the “Number of dead plants/plot, A07” value in the test with Elasmopalpus sp (50 g ai/ha, assessment A07) amounted to 4.50 ab. The “Number of dead plants/plot, A14” value in the test on Elasmopalpus sp (50 g ai/ha, assessment A14) came to 5.25 b. Besides, the “Number of dead plants/plot, A21” value with Elasmopalpus sp (50 g ai/ha, assessment A21) came to 6.75 b. Besides, the mortality at 30 g/ha in the test on Dichelops melacanthus (read-out: Percentage mortality (%), A01) was determined as 5.4%; in the test on Dichelops melacanthus (read-out: Percentage mortality (%), A03), 24.6%; with Dichelops melacanthus (read-out: Percentage mortality (%), A07), 13%; with Dichelops melacanthus (read-out: Percentage mortality (%), A14), 35.3%; in the test with Dichelops melacanthus (read-out: Percentage mortality (%), A21) it was 61.5%. Also, the “efficacy against green belly stink bug (in words)” value in the test with Dichelops melacanthus (corn seed treatment) is “good efficacy”. Moreover, the “efficacy against F. fusca in terms of reduction in feeding damage (in words)” value in the test on Frankliniella fusca [1] was “excellent efficacy”; with Frankliniella fusca [2], “good efficacy”. In the test on Frankliniella fusca [1] (0.375 mg ai/seed, field, 5 DAP), the “Feeding damage (%), 5 DAP” value is 6.0 b %. Besides, the “Feeding damage (%), 7 DAP” value with Frankliniella fusca [1] (0.375 mg ai/seed, field, 7 DAP) is 12.5 c %. Also, the “Feeding damage (%), A28” value in the test on Frankliniella fusca [2] (0.68 mg ai/seed, field, 28 days after treatment) is 13.0 b %. In the test with Frankliniella fusca [2] (0.68 mg ai/seed, field, 35 days after treatment), the “Feeding damage (%), A35” value was found to be 13.5 b %. Besides, the “efficacy against L. decimlineata regarding reduction in feeding damage (in words)” value in [3] was “good efficacy”. Besides, in test [3] (400 g ai/ha, 42 days after planting), the “Feeding damage, A42” value is reported as 3.0 b. Besides, the “Feeding damage, A50” value in test [3] (400 g ai/ha, 50 days after planting) is 11.3 bc. Moreover, the “% activity (population reduction), solo application” value (shortened to “% activity (population reduction)”) in test [4] (5 g ai/100 kg seeds) was 46%; in test [4] (14 g ai/100 kg seeds), 59%. In addition, the “% activity (feeding damage reduction), solo application” value in [5] (use rate 0.375 (head: g ai/100 kg seeds)) came to 19%.

With `CN1COCN(Cc2cnc(Cl)s2)/C1=N\[N+](=O)[O-]` [thiamethoxam, reference compound], the “% activity (feeding damage reduction), solo application” value in [5] (use rate 0.300 (head: g ai/100 kg seeds)) amounted to 37%.

`O=C1C=C(N(Cc2ccc(Cl)nc2)CC(F)F)CO1` [Flupyradifurone]: the “% activity (population reduction)” value in [4] (21 g ai/100 kg seeds) is on record as 36%.

As for `CCN(C(=O)c1cnn(C(C)C(C)C)c1C)c1ccnnc1` (stereo not drawn) [Dimpropyridaz, 1-(1,2-dimethylpropyl)-N-ethyl-5-methyl-N-pyridazin-4-yl-pyrazole-4-carboxamide], the “% activity (population reduction)” value in test [4] (18 g ai/100 kg seeds) is given as 5%; in test [4] (46 g ai/100 kg seeds), 11%.
